Experimental findings from ChEMBL document CHEMBL3297656, “New coumarin derivatives: design, synthesis and use as inhibitors of hMAO” (Bioorg Med Chem, 2014) are described below.

Structures are written as SMILES. pIC50: −log10 of the molar value.

The target in data set [1] is T1, Amine oxidase [flavin-containing] A (Homo sapiens, UniProt P21397).
T1 sequence (P21397 whole entry): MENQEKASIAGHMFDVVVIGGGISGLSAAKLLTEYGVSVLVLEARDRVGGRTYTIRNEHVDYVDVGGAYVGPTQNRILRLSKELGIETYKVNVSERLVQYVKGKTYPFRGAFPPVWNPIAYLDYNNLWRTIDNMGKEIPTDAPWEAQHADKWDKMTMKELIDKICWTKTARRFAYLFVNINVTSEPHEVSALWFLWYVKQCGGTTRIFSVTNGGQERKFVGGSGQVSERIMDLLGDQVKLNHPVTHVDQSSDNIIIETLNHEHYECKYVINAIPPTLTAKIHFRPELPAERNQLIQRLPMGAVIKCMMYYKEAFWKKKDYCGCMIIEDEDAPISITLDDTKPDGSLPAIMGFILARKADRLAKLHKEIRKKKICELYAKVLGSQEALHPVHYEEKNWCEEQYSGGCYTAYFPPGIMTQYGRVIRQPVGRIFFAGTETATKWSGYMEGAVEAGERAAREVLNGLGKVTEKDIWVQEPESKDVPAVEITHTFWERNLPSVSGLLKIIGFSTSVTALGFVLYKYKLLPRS
Description: Inhibition of human recombinant MAO-A assessed as H2O2 production using p-tyramine substrate by fluorimetric method.

Data set [2] concerns the target T2, Amine oxidase [flavin-containing] B (Homo sapiens, UniProt P27338).
T2 sequence (P27338 whole entry): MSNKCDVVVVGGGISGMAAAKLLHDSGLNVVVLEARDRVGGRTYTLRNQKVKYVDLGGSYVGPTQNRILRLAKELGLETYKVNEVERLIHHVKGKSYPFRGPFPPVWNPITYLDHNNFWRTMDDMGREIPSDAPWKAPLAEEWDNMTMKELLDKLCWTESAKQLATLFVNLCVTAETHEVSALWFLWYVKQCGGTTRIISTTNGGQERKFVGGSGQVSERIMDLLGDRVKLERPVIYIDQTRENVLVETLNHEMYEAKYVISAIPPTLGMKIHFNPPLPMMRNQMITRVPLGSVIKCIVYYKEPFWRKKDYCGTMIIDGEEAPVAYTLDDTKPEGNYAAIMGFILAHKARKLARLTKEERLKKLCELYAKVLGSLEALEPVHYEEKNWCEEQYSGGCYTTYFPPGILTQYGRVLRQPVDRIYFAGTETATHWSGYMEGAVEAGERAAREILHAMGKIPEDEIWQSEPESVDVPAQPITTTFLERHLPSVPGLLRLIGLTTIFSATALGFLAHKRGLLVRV
The experiment in a line: Inhibition of human recombinant MAO-B assessed as H2O2 production using p-tyramine substrate by fluorimetric method.

The species named for another data set is Homo sapiens. Description: Selectivity index, ratio of IC50 for human recombinant MAO-A to IC50 for human recombinant MAO-B.
Data set [3] concerns the target T1, Amine oxidase [flavin-containing] A. Description: Inhibition of human recombinant MAO-A assessed as H2O2 production using p-tyramine substrate at 60 uM by fluorimetric method.
Data set [4] has as its target T2, Amine oxidase [flavin-containing] B. Description: Inhibition of human recombinant MAO-B assessed as H2O2 production using p-tyramine substrate at 60 uM by fluorimetric method.

Consider `CC(C)NC(=O)c1cc2cc(Br)cc(Br)c2oc1=O`, for which the negative logarithm of the IC50 (pIC50) (as a rule, −log10 of the IC50, conventionally taken in molar units) in data set [1] is 4.64; in data set [2], 4.99. The Ratio IC50 in the data set filed under Homo sapiens was 2.2.
Regarding `CC(C)NC(=O)c1cc2cc([N+](=O)[O-])ccc2oc1=O`, the “inhibition (INH)” value in data set [3] and in data set [4] was “Not Active” each time.
Take `CCC(C)NC(=O)c1cc2cc(Br)cc(Br)c2oc1=O` (stereo not drawn): the pIC50 is 4.37 in data set [1] and 4.34 in data set [2]. Also, the Ratio IC50 in the data set listed under Homo sapiens is 0.9.
As for `CC(C)NC(=O)c1cc2ccccc2oc1=O`, the pIC50 in data set [1] was 4.45.
For `CCCCCCN(CCCCCC)C(=O)c1cc2cc([N+](=O)[O-])ccc2oc1=O`, the “inhibition (INH)” value in data set [3] and in data set [4] was “Not Active” throughout.
`CC(C)(C)NC(=O)c1cc2ccccc2oc1=O`: the pIC50 in data set [1] is 4.39; in data set [2] it was 5.10. Further, the Ratio IC50 in the data set listed under Homo sapiens was found to be 5.1.
`O=C(Sc1ccc(Br)cc1)c1cc2ccccc2oc1=O`: the pIC50 was 4.64 in data set [1] and 5.19 in data set [2]. The Ratio IC50 in the data set listed under Homo sapiens is 3.5.
`O=C(SCc1ccco1)c1cc2cc(Br)c(Br)cc2oc1=O`: in data set [3], the “inhibition (INH)” value was “Not Active”. The pIC50 in data set [2] is 5.25. Also, the Ratio IC50 in the data set listed under Homo sapiens worked out at 10.6.
On to `CCCCSC(=O)c1cc2cc([N+](=O)[O-])ccc2oc1=O`, for which the “inhibition (INH)” value in data set [3] and in data set [4] was “Not Active” throughout.
In the case of `CC(C)(C)NC(=O)c1cc2cc([N+](=O)[O-])ccc2oc1=O`, the “inhibition (INH)” value in data set [3] and in data set [4] was “Not Active” in each case.
In the case of `CCCCSC(=O)c1cc2ccccc2oc1=O`, in data set [3], the “inhibition (INH)” value is “Not Active”. In addition, the pIC50 in data set [2] is 4.80. In addition, the Ratio IC50 in the data set listed under Homo sapiens is 3.8.
Regarding `CCCCCCN(CCCCCC)C(=O)c1cc2cc(Br)cc(Br)c2oc1=O`, the pIC50 in data set [1] was 5.00; in data set [2] it was 5.13. In addition, in the data set listed under Homo sapiens, the Ratio IC50 is 1.4.
`CCC(C)NC(=O)c1cc2cc([N+](=O)[O-])ccc2oc1=O` (stereo not drawn): in data set [3], the “inhibition (INH)” value was “Not Active”. In data set [2], the pIC50 was 4.76. Besides, the Ratio IC50 in the data set listed under Homo sapiens was found to be 3.4.
The corresponding values for `O=C(Sc1ccc(Br)cc1)c1cc2cc([N+](=O)[O-])ccc2oc1=O` are “Not Active”, 4.68 and 2.6.
The matching figures for `O=C(Sc1ccc(Br)cc1)c1cc2cc(C(F)(F)F)ccc2oc1=O`: “Not Active”, 4.82 and 3.9.
Turning to `O=C(SCc1ccco1)c1cc2cc([N+](=O)[O-])ccc2oc1=O`, the values for the negative logarithm of the IC50 (pIC50) in data set [1] and in data set [2] were 4.32 and 4.88, respectively. In the data set listed under Homo sapiens, the Ratio IC50 is 2.9.
Turning to `O=C(Sc1ncccn1)c1cc2ccccc2oc1=O`, the “inhibition (INH)” value in data set [3] is on record as “Not Active”. Also, the negative-log IC50 (pIC50) in data set [2] was 5.11. In the data set listed under Homo sapiens, the Ratio IC50 amounted to 7.8.
For `O=C(SCc1ccco1)c1cc2ccccc2oc1=O`, the results for the pIC50 in data set [1] and in data set [2] were 4.40 and 6.68, respectively. Moreover, the Ratio IC50 in the data set listed under Homo sapiens was found to be 189.
Turning to `CCCCSC(=O)c1cc2cc(Br)c(Br)cc2oc1=O`, the “inhibition (INH)” value in data set [3] and in data set [4] was “Not Active” each time.
On to `O=C(Sc1ccc(Br)cc1)c1cc2cc(Br)c(Br)cc2oc1=O`, for which, in data set [3], the “inhibition (INH)” value is given as “Not Active”. In data set [2], the pIC50 is 4.60. In addition, in the data set listed under Homo sapiens, the Ratio IC50 was found to be 2.4.
